According to patent US20240374601A1, “METHODS AND COMPOSITIONS FOR TREATING CANCER” (Onconova Therapeutics, Inc., priority 2021, published 2024):

How the values were obtained:
[1] = Myelosuppression and neutropenia in preclinical models; settings: in comparison to Comparator-1
[2] = Neutropenia, FIG. 2; type: cell-based; settings: ovarian cancer cell line; compared to Comparator 1
[3] = system: breast cancer cells; experiment: Growth of cancer cell lines resistant to Comparator-1; type: cell-based; settings: breast cancer cells resistant to Comparator-1
[4] = system: ovarian cancer cells; experiment: Growth of ovarian cancer cell lines; type: cell-based
[5] = system: prostate cancer cells; experiment: Growth of cancer cell lines resistant to Comparator-1; type: cell-based; settings: prostate cancer cells resistant to Comparator-1

Q: For `CN1CCN(c2ccc(Nc3ncc4cc(C#N)c(=O)n(C5CCCC5)c4n3)cc2)CC1` [Compound 1, 8-cyclopentyl-2-((4-(4-methylpiperazin-1-yl)phenyl)amino)-7-oxo-7,8-dihydropyrido[2,3-d]pyrimidine-6-carbonitrile], which myelosuppression [1] is on record?
A: The myelosuppression was “less myelosuppression”.

Q: And the neutropenia [1]?
A: Its neutropenia is “less neutropenia”.

Q: And the “neutropenia (FIG. 2)” value [2]?
A: Its value is “reduced neutropenia”.

Q: And the “growth of cancer cell lines” value [3]?
A: Its value is “inhibited growth”.

Q: What about the “inhibition of ovarian cancer cell line growth (FIG. 3)” value ([4]; compared to Comparator 1) of the same compound?
A: Its value is “higher inhibition”.

Q: What about the “growth of cancer cell lines” value ([4]; ovarian cancer cells resistant to Comparator-1) of the same compound?
A: The value was “inhibited growth”.

Q: And the “growth of cancer cell lines” value [5]?
A: Its value is “inhibited growth”.
